Measured values from ChEMBL document CHEMBL1154158, “Synthesis and antitumoral activity of novel thiazolobenzotriazole, thiazoloindolo[3,2-c]quinoline and quinolinoquinoline derivatives” (Eur J Med Chem, 2009).
Active and inactive are the calls of the source. The rule behind the calls is not given here.

Experiments:
MDA-MB-231 = assay: Growth inhibition of human MDA-MB-231 cells at 10 uM after 72 hrs by MTT assay; assay type: functional; settings: MDA-MB-231, 72 h
MCF7 = assay: Growth inhibition of human MCF7 cells at 10 uM after 72 hrs by MTT assay; assay type: functional; settings: MCF7, 72 h
[1] = molecular target: DNA topoisomerase 2-alpha (Homo sapiens) (UniProt P11388); assay: Inhibition of human topoisomerase 2-mediated DNA cleavage
Nucleic Acid = assay: Binding affinity to poly(dAT)2 assessed as change in melting temperature at [compound]/[polynucleotide] ratio of 1 at pH 7.1; assay type: nucleic-acid assay
HL-60 [2] = assay: Cytotoxicity against human HL60 cells after 72 hrs; assay type: functional, cell-based; settings: HL-60, 72 h
Calf thymus DNA = assay: Binding affinity to calf thymus DNA assessed as change in melting temperature at [compound]/[polynucleotide] ratio of 1; assay type: nucleic-acid assay; settings: Bos taurus
HL-60 [3] = assay: Cytotoxicity against human mitoxantrone-resistant HL60 cells after 72 hrs; assay type: functional, cell-based; settings: HL-60, 72 h

Sequence of DNA topoisomerase 2-alpha (Homo sapiens) (P11388 whole entry): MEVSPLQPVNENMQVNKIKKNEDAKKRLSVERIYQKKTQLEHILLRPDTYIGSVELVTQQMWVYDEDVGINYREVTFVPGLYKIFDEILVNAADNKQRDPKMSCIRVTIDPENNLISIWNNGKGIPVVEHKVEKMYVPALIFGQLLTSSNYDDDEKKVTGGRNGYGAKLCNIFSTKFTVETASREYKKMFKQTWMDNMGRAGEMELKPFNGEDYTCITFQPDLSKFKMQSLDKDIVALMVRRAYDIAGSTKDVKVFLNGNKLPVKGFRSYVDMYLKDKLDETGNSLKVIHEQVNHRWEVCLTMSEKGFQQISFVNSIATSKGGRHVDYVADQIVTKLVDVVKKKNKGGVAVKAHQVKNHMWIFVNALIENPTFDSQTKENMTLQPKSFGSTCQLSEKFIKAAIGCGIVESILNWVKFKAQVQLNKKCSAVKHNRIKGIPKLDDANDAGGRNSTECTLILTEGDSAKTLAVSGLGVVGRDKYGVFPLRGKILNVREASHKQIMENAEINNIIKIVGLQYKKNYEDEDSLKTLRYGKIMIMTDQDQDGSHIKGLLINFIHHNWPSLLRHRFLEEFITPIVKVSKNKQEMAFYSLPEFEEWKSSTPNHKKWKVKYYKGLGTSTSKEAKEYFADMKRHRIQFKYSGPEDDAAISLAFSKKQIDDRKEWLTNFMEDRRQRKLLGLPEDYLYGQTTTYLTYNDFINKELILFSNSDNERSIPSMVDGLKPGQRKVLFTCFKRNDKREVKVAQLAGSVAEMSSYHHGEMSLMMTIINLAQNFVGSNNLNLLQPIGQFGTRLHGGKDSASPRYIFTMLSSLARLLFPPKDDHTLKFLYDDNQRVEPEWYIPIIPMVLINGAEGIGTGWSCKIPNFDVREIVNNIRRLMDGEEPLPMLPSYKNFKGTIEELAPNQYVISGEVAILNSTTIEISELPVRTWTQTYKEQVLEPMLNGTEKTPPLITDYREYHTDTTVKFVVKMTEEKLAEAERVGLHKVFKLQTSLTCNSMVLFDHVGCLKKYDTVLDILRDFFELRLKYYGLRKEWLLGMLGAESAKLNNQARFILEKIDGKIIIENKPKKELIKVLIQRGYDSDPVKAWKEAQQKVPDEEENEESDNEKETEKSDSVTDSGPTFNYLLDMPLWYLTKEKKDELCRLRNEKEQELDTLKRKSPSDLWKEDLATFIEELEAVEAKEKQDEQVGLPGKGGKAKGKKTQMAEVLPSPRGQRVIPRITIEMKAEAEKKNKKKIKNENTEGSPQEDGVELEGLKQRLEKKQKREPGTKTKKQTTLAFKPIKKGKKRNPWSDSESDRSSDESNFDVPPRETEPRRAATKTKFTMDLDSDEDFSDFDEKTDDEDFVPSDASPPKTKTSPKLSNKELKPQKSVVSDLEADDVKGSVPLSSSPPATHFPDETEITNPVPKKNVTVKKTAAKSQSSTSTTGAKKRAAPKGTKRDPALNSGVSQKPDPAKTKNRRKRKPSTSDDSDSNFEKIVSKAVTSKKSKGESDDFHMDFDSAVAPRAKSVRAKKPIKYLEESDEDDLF

SMILES | inhibition at 10 µM (MDA-MB-231) | inhibition at 10 µM (MCF7) | further results
c1ccc2nc(-n3nnc4c5sc(C6=NCCN6)nc5ccc43)ccc2c1 | 28.5% | 41.3% | –
Cc1cc(-n2nnc3c4sc(C#N)nc4ccc32)c2ccccc2n1 | 91.9% | 87.2% | –
N#Cc1nc2ccc3c(nnn3-c3ccc4ccccc4n3)c2s1 | 19.8% | 30.4% | –
Cc1cc(-n2nnc3c4sc(C5=NCCN5)nc4ccc32)c2ccccc2n1 | 97.4% | 98.9% | –
c1cc(-n2nnc3c4sc(C5=NCCN5)nc4ccc32)ccn1 | 56.4% | 51.1% | –
CC[C@@]1(O)C(=O)OCc2c1cc1n(c2=O)Cc2cc3ccccc3nc2-1 | – | – | inhibition [1]: inactive
CC(=O)Nc1ccc2c(c1)-c1cccc3nccc(c13)N2 | – | – | ΔTm (Nucleic Acid): 24.5 °C; IC50 (HL-60 [2]): 4.6 µM; ΔTm (Calf thymus DNA): 14.5 °C; IC50 (HL-60 [3]): 5.5 µM
c1ccc2c(-n3nnc4c5sc(C6=NCCN6)nc5ccc43)ccnc2c1 | 97.3% | 95.6% | –
c1ccc2c(c1)ncc1c2[nH]c2ccc3ncsc3c21 | – | – | ΔTm (Nucleic Acid): 12.7 °C; IC50 (HL-60 [2]): 17.2 µM; ΔTm (Calf thymus DNA): 7.2 °C; IC50 (HL-60 [3]): 22.6 µM
N#Cc1nc2ccc3c(nnn3-c3ccncc3)c2s1 | 87.4% | 95.5% | –
N#Cc1nc2ccc3c(nnn3-c3ccnc4ccccc34)c2s1 | 32.4% | 34.9% | –
Nc1ccc2[nH]c3c4ccccc4ncc3c2c1 | 85.7% | 73.5% | –
